Data published in the supplement of paper PMC10307832.

Tests used:
Test in all cases: relative viability (nuclei count vs DMSO), 5 days (fraction); higher = more cells survive
SK-LU-1 = system: SK-LU-1
In short: (§1)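 After 5 days of treatment, lung cancer cells in 1536-well plates were fixed and stained in a single step (final 0.05% Triton X-100, 1% formaldehyde, 1 ug/ml Hoechst) and their nuclei counted on 4× images. Treatment had been applied by pin tool the day after seeding as one drug alone or as a fixed anchor-drug dose with five library-drug doses (not always all listed) in √10 steps. Relative viability is the nuclei count of treated wells divided by that of vehicle wells, and values are medians of duplicate plates.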

NCI-H2126 = system: NCI-H2126
In short: as §1

NCI-H23 = system: NCI-H23
In short: as §1

ABC-1 = system: ABC-1
In short: as §1

NCI-H1944 = system: NCI-H1944
In short: as §1

EMC-BAC-2 = system: EMC-BAC-2
In short: as §1

NCI-H2023 = system: NCI-H2023
In short: as §1

HCC-78 = system: HCC-78
In short: as §1

LC-2-ad = system: LC-2-ad
In short: as §1

HCC-15 = system: HCC-15
In short: as §1

HOP-62 = system: HOP-62
In short: as §1

NCI-H838 = system: NCI-H838
In short: as §1

NCI-H1793 = system: NCI-H1793
In short: as §1

ChaGo-K-1 = system: ChaGo-K-1
In short: as §1

NCI-H2228 = system: NCI-H2228
In short: as §1

NCI-H1395 = system: NCI-H1395
In short: as §1

NCI-H2405 = system: NCI-H2405
In short: as §1

COR-L23 = system: COR-L23
In short: as §1

NCI-H358 = system: NCI-H358
In short: as §1

NCI-H1993 = system: NCI-H1993
In short: as §1

HARA = system: HARA
In short: as §1

HCC-366 = system: HCC-366
In short: as §1

Structure (SMILES): Cc1sc2c(c1C)C(c1ccc(Cl)cc1)=N[C@@H](CC(=O)OC(C)(C)C)c1nnc(C)n1-2 [JQ1] + COc1cc2c(Oc3ccc(NC(=O)C4(C(=O)Nc5ccc(F)cc5)CC4)cc3F)ccnc2cc1OCCCN1CCOCC1 [Foretinib] (partner 0.25 µM)
- relative viability (SK-LU-1; first compound 0.04 µM): 0.848
- relative viability (SK-LU-1; first compound 0.1265 µM): 0.613
- relative viability (SK-LU-1; first compound 0.4 µM): 0.787
- relative viability (SK-LU-1; first compound 1.265 µM): 0.306
- relative viability (SK-LU-1; first compound 4 µM): 0.153
- relative viability (NCI-H2126; first compound 0.04 µM): 1.22
- relative viability (NCI-H2126; first compound 0.1265 µM): 1.15
- relative viability (NCI-H2126; first compound 0.4 µM): 1.03
- relative viability (NCI-H2126; first compound 1.265 µM): 0.655
- relative viability (NCI-H2126; first compound 4 µM): 0.693
- relative viability (NCI-H23; first compound 0.04 µM): 0.986
- relative viability (NCI-H23; first compound 0.1265 µM): 0.772
- relative viability (NCI-H23; first compound 0.4 µM): 0.546
- relative viability (NCI-H23; first compound 1.265 µM): 0.558
- relative viability (NCI-H23; first compound 4 µM): 0.297
- relative viability (ABC-1; first compound 0.04 µM): 0.916
- relative viability (ABC-1; first compound 0.1265 µM): 0.859
- relative viability (ABC-1; first compound 0.4 µM): 0.89
- relative viability (ABC-1; first compound 1.265 µM): 0.395
- relative viability (ABC-1; first compound 4 µM): 0.399
- relative viability (NCI-H1944; first compound 0.04 µM): 0.797
- relative viability (NCI-H1944; first compound 0.1265 µM): 0.792
- relative viability (NCI-H1944; first compound 0.4 µM): 0.513
- relative viability (NCI-H1944; first compound 1.265 µM): 0.441
- relative viability (NCI-H1944; first compound 4 µM): 0.425
- relative viability (EMC-BAC-2; first compound 0.04 µM): 1.04
- relative viability (EMC-BAC-2; first compound 0.1265 µM): 0.868
- relative viability (EMC-BAC-2; first compound 0.4 µM): 0.584
- relative viability (EMC-BAC-2; first compound 1.265 µM): 0.376
- relative viability (EMC-BAC-2; first compound 4 µM): 0.556
- relative viability (NCI-H2023; first compound 0.04 µM): 0.779
- relative viability (NCI-H2023; first compound 0.1265 µM): 0.816
- relative viability (NCI-H2023; first compound 0.4 µM): 0.597
- relative viability (NCI-H2023; first compound 1.265 µM): 0.252
- relative viability (NCI-H2023; first compound 4 µM): 0.199
- relative viability (HCC-78; first compound 0.04 µM): 0.557
- relative viability (HCC-78; first compound 0.1265 µM): 0.506
- relative viability (HCC-78; first compound 0.4 µM): 0.495
- relative viability (HCC-78; first compound 1.265 µM): 0.509
- relative viability (HCC-78; first compound 4 µM): 0.453
- relative viability (LC-2-ad; first compound 0.04 µM): 0.809
- relative viability (LC-2-ad; first compound 0.1265 µM): 0.625
- relative viability (LC-2-ad; first compound 0.4 µM): 0.538
- relative viability (LC-2-ad; first compound 1.265 µM): 0.359
- relative viability (LC-2-ad; first compound 4 µM): 0.266
- relative viability (HCC-15; first compound 0.04 µM): 0.914
- relative viability (HCC-15; first compound 0.4 µM): 0.767
- relative viability (HCC-15; first compound 1.265 µM): 0.66
- relative viability (HCC-15; first compound 4 µM): 0.589
- relative viability (HOP-62; first compound 0.04 µM): 0.982
- relative viability (HOP-62; first compound 0.1265 µM): 0.848
- relative viability (HOP-62; first compound 0.4 µM): 0.348
- relative viability (HOP-62; first compound 1.265 µM): 0.241
- relative viability (HOP-62; first compound 4 µM): 0.124
- relative viability (NCI-H838; first compound 0.04 µM): 1.08
- relative viability (NCI-H838; first compound 0.1265 µM): 0.703
- relative viability (NCI-H838; first compound 0.4 µM): 0.801
- relative viability (NCI-H838; first compound 1.265 µM): 0.31
- relative viability (NCI-H838; first compound 4 µM): 0.285
- relative viability (NCI-H1793; first compound 0.04 µM): 0.65
- relative viability (NCI-H1793; first compound 0.1265 µM): 0.788
- relative viability (NCI-H1793; first compound 0.4 µM): 0.713
- relative viability (NCI-H1793; first compound 1.265 µM): 0.728
- relative viability (NCI-H1793; first compound 4 µM): 0.483
- relative viability (ChaGo-K-1; first compound 0.04 µM): 0.95
- relative viability (ChaGo-K-1; first compound 0.1265 µM): 0.827
- relative viability (ChaGo-K-1; first compound 0.4 µM): 0.929
- relative viability (ChaGo-K-1; first compound 1.265 µM): 0.7
- relative viability (ChaGo-K-1; first compound 4 µM): 0.583
- relative viability (NCI-H2228; first compound 0.04 µM): 0.806
- relative viability (NCI-H2228; first compound 0.1265 µM): 0.766
- relative viability (NCI-H2228; first compound 0.4 µM): 0.647
- relative viability (NCI-H2228; first compound 1.265 µM): 0.481
- relative viability (NCI-H2228; first compound 4 µM): 0.383
- relative viability (NCI-H1395; first compound 0.04 µM): 0.716
- relative viability (NCI-H1395; first compound 0.1265 µM): 0.955
- relative viability (NCI-H1395; first compound 0.4 µM): 1
- relative viability (NCI-H1395; first compound 1.265 µM): 0.732
- relative viability (NCI-H1395; first compound 4 µM): 0.525
- relative viability (NCI-H2405; first compound 0.04 µM): 1.08
- relative viability (NCI-H2405; first compound 0.1265 µM): 1.02
- relative viability (NCI-H2405; first compound 0.4 µM): 1.03
- relative viability (NCI-H2405; first compound 1.265 µM): 0.835
- relative viability (NCI-H2405; first compound 4 µM): 0.744
- relative viability (COR-L23; first compound 0.04 µM): 0.98
- relative viability (COR-L23; first compound 0.1265 µM): 0.73
- relative viability (COR-L23; first compound 0.4 µM): 0.892
- relative viability (COR-L23; first compound 1.265 µM): 0.663
- relative viability (COR-L23; first compound 4 µM): 0.432
- relative viability (NCI-H358; first compound 0.04 µM): 0.686
- relative viability (NCI-H358; first compound 0.1265 µM): 0.83
- relative viability (NCI-H358; first compound 0.4 µM): 0.685
- relative viability (NCI-H358; first compound 1.265 µM): 0.259
- relative viability (NCI-H358; first compound 4 µM): 0.309
- relative viability (NCI-H1993; first compound 0.04 µM): 0.794
- relative viability (NCI-H1993; first compound 0.1265 µM): 0.794
- relative viability (NCI-H1993; first compound 0.4 µM): 0.682
- relative viability (NCI-H1993; first compound 1.265 µM): 0.692
- relative viability (NCI-H1993; first compound 4 µM): 0.738
- relative viability (HARA; first compound 0.04 µM): 0.89
- relative viability (HARA; first compound 0.1265 µM): 0.647
- relative viability (HARA; first compound 0.4 µM): 0.572
- relative viability (HARA; first compound 1.265 µM): 0.343
- relative viability (HARA; first compound 4 µM): 0.227
- relative viability (HCC-366; first compound 0.04 µM): 0.994
- relative viability (HCC-366; first compound 0.4 µM): 0.827
- relative viability (HCC-366; first compound 1.265 µM): 0.359
- relative viability (HCC-366; first compound 4 µM): 0.266
